Where a name gives a salt, the structure may show the parent alone.
Experiments:
[1] = biological target: T1, NS5B enzyme (HCV polymerase, NS5Bt) (Hepatitis C virus genotype 1a, UniProt P27958); assay: HCV polymerase (RdRp) inhibition assay; format: biochemical; details: for inhibition when treated: FIG. 4; for change of inhibition with increase in manganese concentration: FIG. 5
T1 construct: added a methionine and alanine to the N terminus and truncated the C-terminal 21 amino acids, replacing them with a hexahistidine tag; hexahistidine (C); made in house; host or cells: E. coli BL21(DE3)pLysS, plasmid pRSK1 in pET32a
From the text: The HCV NS5B gene was amplified from a genotype 1A, clone, p134/pBRTM 2029-3011 (ΔAvrII). The primers used added a methionine and alanine to the N terminus and truncated the C-terminal 21 amino acids, replacing them with a hexahistidine tag, which allowed increased soluble product in E. coli and metal affinity purification. The PCR product was cloned into the pET32a expression construct (Novagen) at the NcoI and BamHI sites and the resultant plasmid (pRSK1) was sequenced by the Stanford PAN facility using standard methods. […] (DE3)pLysS cells (Novagen) were transformed by pRSK1 and grown at 37° C. to an optical density of 0.1, at which time the cells were switched to room temperature. At an optical density of 0.3-0.5, isopropyl-β-D-thiogalactopyanoside was added to a final concentration of 0.5 mM and the cells were harvested after 6 h. The cell pellet was frozen, thawed and resuspended in buffer containing 50 mM sodium phosphate pH 7.0, 10% glycerol, 0.3 M NaCl, 2 mM β-mercaptoethanol, 0.5% β-octyl-glucoside. The cell extract was sonicated, and cellular debris removed by centrifugation. The extract was incubated batch-wise with Talon metal affinity resin (Clontech), washed extensively with the above buffer, and then poured into a column for a stepwise imidazole elution. The polymerase, referred to as NS5Bt, eluted specifically between 70 mM and 250 mM imidazole and was ˜90% pure.
RdRp assays were a modification of the assays described in Kao et al. (Kao, C, C.; Yang, X.; Kline, A.; Wang, Q. M.; Barket, D.; Heinz, B. A. (2000) J. Virol. 74, 11121-11128). The template used allows for de novo synthesis and has its 3′ termini blocked by puromycin, which largely prevents the high molecular weight product from forming and allows for predominantly 24- and 25-nucleotide products to be seen. Each reaction contained 50 mM Hepes-NaOH pH 8.0, 0.65 μM template, 0.1 μM purified NS5Bt described above, 250 μM GTP, 5 μM UTP, 0.6 μM CTP, and 1 μM [αP32] ATP, 0.5 mM MnCl2, 7 mM MgCl2, 18 mM DTT, and the stated concentration of the analog. Reaction mixes were incubated at 27° C. for 45 min. Reactions were terminated by the addition of ⅕ the volume of 5× proteinase K mix (250 μg proteinase K/ml [Sigma, St Louis, Mo.], 375 mM Hepes-NaOH pH 8, 0.5% SDS, 25 mM EDTA) and incubated for 10 min at 37° C. Reactions were then precipitated with isopropanol, and glycogen as a carrier, and washed twice with 70% ethanol to remove salt. The RNA was resuspended in formamide loading buffer, heated to 65° C. for 3 min and loaded on a 20% acrylamide/7 M urea/TBE denaturing gel and separated by electrophoresis at 50° C. Quantification of bands was performed using Phosphoimager analysis.

HCV protease = details: SDS-PAGE and autoradiography assay; cited from earlier work

T1 sequence (P27958 2421-2990): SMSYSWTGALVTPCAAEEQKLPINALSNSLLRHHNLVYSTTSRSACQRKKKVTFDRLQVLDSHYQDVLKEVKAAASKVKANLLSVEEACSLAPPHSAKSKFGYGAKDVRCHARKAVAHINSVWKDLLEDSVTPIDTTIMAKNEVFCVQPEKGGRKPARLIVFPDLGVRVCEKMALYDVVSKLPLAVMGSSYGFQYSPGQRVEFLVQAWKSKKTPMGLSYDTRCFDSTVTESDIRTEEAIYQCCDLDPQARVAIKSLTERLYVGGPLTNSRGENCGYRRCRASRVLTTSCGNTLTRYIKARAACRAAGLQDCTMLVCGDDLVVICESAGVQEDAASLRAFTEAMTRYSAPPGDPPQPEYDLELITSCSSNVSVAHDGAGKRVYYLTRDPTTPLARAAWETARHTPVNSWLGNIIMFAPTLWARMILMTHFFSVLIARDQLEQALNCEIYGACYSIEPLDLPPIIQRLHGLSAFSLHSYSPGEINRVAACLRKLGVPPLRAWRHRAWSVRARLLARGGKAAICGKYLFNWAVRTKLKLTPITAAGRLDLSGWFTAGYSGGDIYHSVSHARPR

SMILES	inhibition when treated [1]	change of inhibition with increase in manganese concentration [1]	activity against HCV protease (HCV protease)	inhibition of NS5B enzyme ([1]; FIG. 2 and FIG. 3, triphosphate)
Nc1ccn([C@@H]2CC[C@H](CO)O2)c(=O)n1 [L-ddC, β-L-2′,3′-dideoxycytidine]	no inhibition	not affected		
Nc1nc(=O)n([C@@H]2CC[C@H](CO)O2)cc1F [L-ddFC, β-L-2′,3′-Dideoxy-5-fluorocytidine]	dose-dependent inhibition	increase of inhibition		
CCCC(=O)c1cc2c(c(O)c1C)C(=O)C(=O)c1c(O)cccc1-2 [Sch 68631]			micromolar activity	
Nc1nc(=O)n([C@@H]2CC[C@H](COP(=O)(O)OP(=O)(O)OP(=O)(O)O)O2)cc1F [β-L-ddFC triphosphate, β-L-2′,3′-Dideoxy-5-fluorocytidine triphosphate, triethylammonium salt]				dose-dependent inhibition
